Values after ≈ are worked out from the molar mass of the structure shown.
Experiments:
[1] = molecular target: T1, PDI A1 (Homo sapiens, UniProt P07237); assay: Insulin turbidometric assay, inhibition of PDI A1; assay type: biochemical; details: insulin reduction, turbidity at 650 nm, 60 min incubation at 37° C.; read-out: Inhibition of PDI A1 (EC 50)
T1 construct: purchased Mybiosource; host or cells: E. coli
Outline: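 E. coli-expressed recombinant PDIA1 (10 ug/ml) preincubated with compound 60 min at 37 °C in phosphate buffer pH 7.6, 1 mM EDTA, DTT. Reaction started with insulin (0.15 mM final) and DTT (0.174 mM final). Insulin-reduction turbidity recorded at 650 nm over 120 s against PDI-free reference.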

[2] = test system: HT-29; assay: Sulforhodamine B antiproliferative assay, 72 h; assay type: cell-based, human; details: Homo sapiens, HT-29; normal (21% of oxygen), 72-hour exposition
Procedure: (§1) Anticancer activity of PDI A1-inhibitors has been also tested in vitro in antiproliferative essay in normoxic and hypoxic conditions as well in estrogen-stimulated cancer cells. In the experiment, cells were seeded on 96-well plates (Sarstedt, Germany) in appropriate culture medium at a density of 10^5 cells/mL 24 h before adding the tested compounds. Cells were treated with each compound in four concentrations in the range 0.1-100 ug/mL. […] After 72 h of compound treatment at 37° C., 5 % CO2 humid atmosphere and in wo different oxygen level conditions: 21% - normal and <1% - hypoxia. In some experiments, the MDA-MB-231 and MCF-7 cells were seeded with or without 200 nM estradiol and after 24 h the tested compounds were added. A previously described sulforhodamine B antiproliferative assay was used with minor modifications (Skehan P et al., 1990). Briefly, cells were fixed with 50 µL/well of 50% (w/v) trichloroacetic acid (Avantor Performance Materials, Gliwice, Poland). After 1 h incubation, plates were washed several times with tap water and 50 µL of 0.4% (w/v) solution of sulforhodamine B (Sigma-Aldrich, Germany) in 1% (v/v) acetic acid (Avantor Performance Materials, Gliwice, Poland) was added to each well. After 30 min incubation at room temperature, unbound dye was washed out with 1% (v/v) acetic acid, whereas bound dye was solubilized with 10 mM unbuffered TRIS (Avantor Performance Materials, Gliwice, Poland) solution. The entire procedure was performed using a BioTek EL-406 washing station (BioTek Instruments, USA). After additional 30 min, absorbance was read using a Biotek Hybrid H4 reader (BioTek Instruments, USA) at 540 nm wavelength. MTT assay was used alternatively for HL-60 cell line and in the experiment in which estrogens are added (specified in the table legend). Absorbance was measured using a Biotek Hybrid H4 reader at 570 nm wavelength for MTT assay.
(§2) Compounds at each concentration were tested in triplicate in a single experiment and each experiment was repeated at least three times independently.
(§3) Results of in vitro antiproliferative effects are shown in Table 3 and Table 4 and are presented as mean IC50 ± SD calculated using the Prolab-3 system based on Cheburator 0.4 software.

[3] = test system: MDA-MB-231; assay: MTT antiproliferative assay, 72 h, with or without estradiol; assay type: cell-based, human; details: Homo sapiens, MDA-MB-231, 72 hours exposition, MTT
Procedure: as §1, §2, §3
(§4) Statistical analysis: Unpaired t test. *p<0.05 as compared to appropriate cells not pretreated with estradiol. MTT assay was used for antiproliferative activity assessment.

[4] = test system: MCF-7; assay: as above; assay type: cell-based, human; details: 72 hours exposition; for IC50: Homo sapiens, MCF7, MTT
Procedure: as §1, §2, §3, §4

[5] = test system: Caco-2; assay: Sulforhodamine B antiproliferative assay, 72 h; assay type: cell-based, human; details: Homo sapiens, Caco-2; normal (21% of oxygen), 72-hour exposition
Procedure: In the experiment, cells were seeded on 96-well plates (Sarstedt, Germany) in appropriate culture medium at a density of 10^5 cells/mL 24 h before adding the tested compounds. Cells were treated with each compound in four concentrations in the range 0.1-100 ug/mL. […] Briefly, cells were fixed with 50 µL/well of 50% (w/v) trichloroacetic acid (Avantor Performance Materials, Gliwice, Poland). After 1 h incubation, plates were washed several times with tap water and 50 µL of 0.4% (w/v) solution of sulforhodamine B (Sigma-Aldrich, Germany) in 1% (v/v) acetic acid (Avantor Performance Materials, Gliwice, Poland) was added to each well. After 30 min incubation at room temperature, unbound dye was washed out with 1% (v/v) acetic acid, whereas bound dye was solubilized with 10 mM unbuffered TRIS (Avantor Performance Materials, Gliwice, Poland) solution. […] After additional 30 min, absorbance was read using a Biotek Hybrid H4 reader (BioTek Instruments, USA) at 540 nm wavelength.

[6] = test system: Caco-2; assay: Caspase-3/7 activity assay; assay type: cell-based, human; details: after 48 h treatment; compared to control
Procedure: (§5) Caspase-3/7 activity assay has been performed as previously described (Milczarek M et al., 2015) after 24 and 48 h of incubation with disclosed compounds. Compounds were tested in triplicate in a single experiment and each experiment was repeated three times independently. Results were normalized to the protein content using the SRB method and reported as mean relative caspase-3/7 activity compared to the control sample ± SD.

[7] = test system: HT-29; assay: Caspase-3/7 activity assay; assay type: cell-based, human; details: after 24 and 48 h of incubation; compared to control
Procedure: as §5

[8] = test system: MDA-MB-231; assay: Sulforhodamine B antiproliferative assay, 72 h, normal and hypoxia; assay type: cell-based, human; details: Homo sapiens, MDA-MB-231, 72-hour exposition
Procedure: as §1, §2, §3

[9] = test system: MCF-7; assay: as above; assay type: cell-based, human; details: Homo sapiens, MCF7; hypoxia (<1% of oxygen), 72-hour exposition; read-out: IC50 [µg/ml] MCF-7 hypoxia
Procedure: as §1, §2, §3

[10] = test system: Caco-2; assay: Cell cycle and cell death analysis; assay type: cell-based; details: FIG. 1C
Procedure: Cell cycle and cell death analysis has been performed as previously described (Milczarek M et al. , 2015). Compounds were tested 5 times independently. Obtained results were analyzed using BD FACSDiva 6.2 software.

T1 sequence (P07237 18-508, species assumed): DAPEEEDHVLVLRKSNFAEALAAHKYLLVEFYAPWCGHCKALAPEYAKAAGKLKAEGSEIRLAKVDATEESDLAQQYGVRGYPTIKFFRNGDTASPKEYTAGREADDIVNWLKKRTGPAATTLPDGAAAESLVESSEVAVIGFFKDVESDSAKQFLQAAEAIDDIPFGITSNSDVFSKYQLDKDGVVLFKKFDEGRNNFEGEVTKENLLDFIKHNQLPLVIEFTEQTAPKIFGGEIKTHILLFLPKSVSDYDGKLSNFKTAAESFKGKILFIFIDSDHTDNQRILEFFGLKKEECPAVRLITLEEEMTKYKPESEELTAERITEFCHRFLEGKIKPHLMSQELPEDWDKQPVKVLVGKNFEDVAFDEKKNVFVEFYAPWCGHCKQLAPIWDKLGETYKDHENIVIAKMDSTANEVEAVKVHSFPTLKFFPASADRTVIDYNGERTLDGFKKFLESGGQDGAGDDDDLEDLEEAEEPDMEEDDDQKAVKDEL

Compound `COC(=O)C1CN1S(=O)(=O)c1ccccc1` (centres unmarked) [Compound C-3251, Methyl 1-(benzenesulfonyl)aziridine-2-carboxylate] has an EC50 [1] of 6 µM, an IC50 [2] of 30.2 ± 4.7 µg/mL (≈ 125 µM) and an IC50 ([3]; 200 nM estradiol, read-out: IC50 [µg/ml] MDA-MB-231 + estradiol) of 29.7 ± 1.9 µg/mL. For the same compound, the IC50 ([3]; not pretreated with estradiol, read-out: IC50 [µg/ml] MDA-MB-231 normal) was 26.6 ± 2.3 µg/mL (≈ 110 µM), the “Selectivity index (SI): IC50 of MCF-10A/ IC50 of MCF-7” value [4] was 6.62 and the IC50 ([4]; 200 nM estradiol, read-out: IC50 [µg/ml] MCF-7 + estradiol) was 4 ± 0.2 µg/mL. The IC50 ([4]; not pretreated with estradiol, read-out: IC50 [µg/ml] MCF-7 normal) was 3.9 ± 0.5 µg/mL (≈ 16.2 µM), the IC50 [5] was 3.4 ± 0.2 µg/mL (≈ 14.1 µM) and the “Caspase 3/7 activity, Caco-2” value [6] was “significantly increase caspase 3/7 activity”. The “Caspase 3/7 activity, HT-29” value [7] was “significantly increase caspase 3/7 activity”, the IC50 ([8]; hypoxia (<1% of oxygen), read-out: IC50 [µg/ml] MDA-MB-231 hypoxia) was 26.5 ± 1.3 µg/mL (≈ 110 µM) and the IC50 ([8]; normal (21% of oxygen), read-out: IC50 [µg/ml] MDA-MB-231 normal) was 24 ± 6.4 µg/mL (≈ 99.5 µM). For the same compound, the IC50 [9] was 7.9 ± 6.5 µg/mL (≈ 32.7 µM) and the “Cell cycle distribution, CaCo-2” value [10] was “increased the percentage of CaCo-2 cells in S cell cycle phase”.

Source: US20230039836A1, “AROMATIC SULPHONAMIDES DERIVATIVES THAT INHIBITS PDI A3, THEIR SYNTHESIS AND USE” (Uniwersytet Jagiellonski, priority 2020, published 2023)
